Test results reported in US11453640B2, “Small molecules for disrupting the super elongation complex and inhibiting transcription elongation for cancer therapy” (NORTHWESTERN UNIVERSITY, priority 2018, dated 2022).

What was measured:
Pol II = experiment: 4sU-FP-seq measurement of Pol II transcription elongation rate in HEK293T cells; assay type: cell-based, human; conditions: 20 μM pretreatment 5 hr, HMM analysis, 982 genes
Method: FIG. 4. Small molecule disruption of SEC slows Pol II elongation rates. (A) Workflow of 4sU-FP-seq based measurement of the transcription elongation rate of RNA Pol II. HEK293T cells were pretreated with vehicle or 20 μM SEC inhibitors for 5 hr before addition of the CDK9 inhibitor flavopiridol for 1 hr to arrest Pol II at the promoter-proximal pause site. Inhibitors are washed out with PBS before allowing transcription to proceed in the presence of with fresh medium containing 500 μM 4-Thiouridine (4sU) for 15 min. The 4sU-labeled RNA is then extracted and fragmented before purification, and followed with RNA-seq. (B) Genome browser tracks of 4sU-FP-seq for vehicle and SEC inhibitor-treated cells at the ACTN2 and MTR loci. […] (C) Heatmap analysis of 4sU-FP-seq in vehicle and the indicated SEC inhibitors in HEK293T cells. All genes longer than 50 kb (N=5,568) were plotted and ordered using the total 4sU-FP-seq signals in the vehicle-treated cells. (D) Metaplot of strand-specific 4sU-FP-seq signals in vehicle and SEC inhibitors-treated cells. […] Raw changes in 4sU-FP-seq read counts in non-overlapping 50 bp windows used to infer elongation rates for the MTR gene. […] (F-G) Histograms (F) and boxplots (G) comparing the transcription elongation rates for 982 genes in HEK293T cells for which high confidence elongation rates could be determined. […]

MDA231-LM2 cells = experiment: Colony formation of MDA231-LM2 cells in vitro; assay type: cell-based; conditions: 5 days
Method: FIG. 14, related to FIG. 7. SEC disruptors delay tumor progression and improve survival of MDA231-LM2 tumor mice. (A) KL-1 and KL-2 inhibit the colony formation of MDA231-LM2 cells in vitro. 5×10^3 MDA231-LM2 cells were seeded in 6-well plates and treated with KL-1 or KL-2 at the indicated doses for 5 days. Crystal violet staining was performed to stain the colonies. (B) KL-1 and KL-2 induce apoptosis in MDA231-LM2 cells. Bar graph depiction of Annexin V positive MDA231-LM2 cells after 24 hr of KL-1 and KL-2 treatments at the indicated concentrations. Data are represented as Mean+/−SD. […] Each individual line indicates the weights of each mouse during toxicity test.

In the case of `COc1cccc(C(=O)CC(=O)C(=O)Nc2cc(Cl)ccc2C)c1` [KL-1, N-(5-chloro-2-methylphenyl)-4-oxo-4-(3-methoxyphenyl)-2-oxobutanamide], the “elongation rate of Pol II” value (Pol II) is reported as “decreased the elongation rate of Pol II” and the colony formation capability (MDA231-LM2 cells) is reported as “could inhibit the colony formation capability”.
